From ChEMBL document CHEMBL1909046, “DrugMatrix in vitro pharmacology data”

Tests used:
[1] = target: T1, Adenosine receptor A1 (Homo sapiens, UniProt P30542); assay type: cell membranes, CHO, Membrane; details: cho;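 also: radioligand binding assay at the adenosine A1 receptor, with DPCPX serving as the labelled ligand; in other assays of this panel Not Active means under 50% inhibition at 10 µM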
T1 sequence (P30542 whole entry): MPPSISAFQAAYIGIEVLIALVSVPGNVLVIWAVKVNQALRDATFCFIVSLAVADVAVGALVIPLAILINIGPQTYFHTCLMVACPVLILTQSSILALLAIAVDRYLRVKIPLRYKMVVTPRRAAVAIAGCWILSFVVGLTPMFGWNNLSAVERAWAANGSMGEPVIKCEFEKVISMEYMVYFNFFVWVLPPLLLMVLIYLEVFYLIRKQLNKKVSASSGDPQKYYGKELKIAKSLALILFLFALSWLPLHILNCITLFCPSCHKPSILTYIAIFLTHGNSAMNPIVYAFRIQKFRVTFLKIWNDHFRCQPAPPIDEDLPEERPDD

[2] = target: Platelet-activating factor receptor (Homo sapiens, UniProt P25105); assay type: tissue-based; also: in other assays of this panel Not Active means under 50% inhibition at 10 µM
[3] = target: C-C chemokine receptor type 2 (Homo sapiens, UniProt P41597); assay type: cell membranes, Membrane; details: cho-k1; also: in other assays of this panel Not Active means under 50% inhibition at 10 µM
[4] = target: Vasopressin V1a receptor (Homo sapiens, UniProt P37288); assay type: cell membranes, Membrane; details: hek293; also: in other assays of this panel Not Active means under 50% inhibition at 10 µM
[5] = target: T2, Neuropeptide Y receptor type 2 (Homo sapiens, UniProt P49146); assay type: cell membranes, KAN-TS, Membrane; details: kan-ts; also: in other assays of this panel Not Active means under 50% inhibition at 10 µM
T2 sequence (P49146 whole entry): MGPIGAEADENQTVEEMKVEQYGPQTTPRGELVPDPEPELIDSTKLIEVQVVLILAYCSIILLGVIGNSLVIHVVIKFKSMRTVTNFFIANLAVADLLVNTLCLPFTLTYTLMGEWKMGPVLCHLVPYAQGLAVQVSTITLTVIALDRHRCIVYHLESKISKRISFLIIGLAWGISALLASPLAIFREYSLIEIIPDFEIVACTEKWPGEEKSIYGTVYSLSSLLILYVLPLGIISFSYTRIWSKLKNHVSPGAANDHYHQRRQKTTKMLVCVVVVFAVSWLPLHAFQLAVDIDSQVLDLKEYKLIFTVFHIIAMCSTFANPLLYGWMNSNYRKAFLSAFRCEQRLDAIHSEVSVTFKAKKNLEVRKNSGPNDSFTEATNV

[6] = target: T3, C-C chemokine receptor type 4 (Homo sapiens, UniProt P51679); assay type: cell membranes, Membrane; details: chem-1; also: in other assays of this panel Not Active means under 50% inhibition at 10 µM
T3 sequence (P51679 whole entry): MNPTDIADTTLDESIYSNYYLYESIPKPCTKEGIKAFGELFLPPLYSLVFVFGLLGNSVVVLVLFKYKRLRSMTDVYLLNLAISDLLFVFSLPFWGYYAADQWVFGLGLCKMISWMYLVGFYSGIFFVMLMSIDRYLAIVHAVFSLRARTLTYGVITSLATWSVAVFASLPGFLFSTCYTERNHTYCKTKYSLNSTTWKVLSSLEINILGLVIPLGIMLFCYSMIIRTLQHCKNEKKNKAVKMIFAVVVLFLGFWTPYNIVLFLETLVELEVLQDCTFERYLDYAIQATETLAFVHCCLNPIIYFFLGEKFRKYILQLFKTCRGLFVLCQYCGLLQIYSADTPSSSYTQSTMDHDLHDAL

[7] = target: Mitogen-activated protein kinase 1 (Homo sapiens, UniProt P28482); assay: DRUGMATRIX: Protein Serine/Threonine Kinase, ERK2 enzyme inhibition (substrate: Myelin Basic Protein); parameters: species or system Escherichia coli; details: Not Active = under 50% inhibition at 10 µM
Sequence of Mitogen-activated protein kinase 1 (P28482 whole entry): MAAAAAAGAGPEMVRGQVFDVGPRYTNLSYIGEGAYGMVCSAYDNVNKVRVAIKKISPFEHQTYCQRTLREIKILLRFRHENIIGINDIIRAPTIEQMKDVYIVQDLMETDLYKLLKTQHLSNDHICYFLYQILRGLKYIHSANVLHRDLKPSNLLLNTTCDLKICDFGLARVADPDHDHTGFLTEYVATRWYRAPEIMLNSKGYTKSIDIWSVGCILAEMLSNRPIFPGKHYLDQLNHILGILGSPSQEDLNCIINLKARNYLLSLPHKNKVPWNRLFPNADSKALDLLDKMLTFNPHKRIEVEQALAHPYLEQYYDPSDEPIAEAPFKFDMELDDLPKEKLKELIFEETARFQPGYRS

Sequence of C-C chemokine receptor type 2 (P41597 whole entry): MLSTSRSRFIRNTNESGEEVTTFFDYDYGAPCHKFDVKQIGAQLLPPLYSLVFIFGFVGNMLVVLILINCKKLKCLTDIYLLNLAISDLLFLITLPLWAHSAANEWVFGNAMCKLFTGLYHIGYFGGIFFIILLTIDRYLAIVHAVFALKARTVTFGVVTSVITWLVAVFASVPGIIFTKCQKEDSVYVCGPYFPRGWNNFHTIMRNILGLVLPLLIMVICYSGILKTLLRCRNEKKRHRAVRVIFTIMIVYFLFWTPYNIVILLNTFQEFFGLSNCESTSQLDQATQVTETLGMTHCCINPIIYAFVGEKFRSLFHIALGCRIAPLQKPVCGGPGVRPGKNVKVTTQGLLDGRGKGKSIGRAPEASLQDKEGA
Sequence of Platelet-activating factor receptor (P25105 whole entry): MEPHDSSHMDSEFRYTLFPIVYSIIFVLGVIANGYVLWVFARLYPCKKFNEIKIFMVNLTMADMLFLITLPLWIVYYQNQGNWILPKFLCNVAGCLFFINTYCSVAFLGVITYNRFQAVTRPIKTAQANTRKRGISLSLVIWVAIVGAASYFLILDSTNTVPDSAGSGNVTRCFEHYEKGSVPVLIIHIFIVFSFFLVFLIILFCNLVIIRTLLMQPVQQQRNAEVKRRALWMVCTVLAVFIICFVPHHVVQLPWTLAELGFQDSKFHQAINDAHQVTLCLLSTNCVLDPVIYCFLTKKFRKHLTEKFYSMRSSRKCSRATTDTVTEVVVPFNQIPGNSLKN
Sequence of Vasopressin V1a receptor (P37288 whole entry): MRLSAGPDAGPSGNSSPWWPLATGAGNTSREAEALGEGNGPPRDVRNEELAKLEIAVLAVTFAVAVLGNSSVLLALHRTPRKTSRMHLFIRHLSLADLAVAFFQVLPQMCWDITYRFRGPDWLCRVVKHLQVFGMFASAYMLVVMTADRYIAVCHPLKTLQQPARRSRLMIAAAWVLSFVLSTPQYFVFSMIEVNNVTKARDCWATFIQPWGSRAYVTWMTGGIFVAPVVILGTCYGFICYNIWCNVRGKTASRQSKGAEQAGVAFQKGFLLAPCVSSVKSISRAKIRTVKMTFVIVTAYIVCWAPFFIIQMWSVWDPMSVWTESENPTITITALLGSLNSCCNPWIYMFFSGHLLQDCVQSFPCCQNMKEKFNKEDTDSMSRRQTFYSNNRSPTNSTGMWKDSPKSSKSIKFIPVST

AURANOFIN
Not Active: IC50 [1] | Ki [1] | IC50 [2] | Ki [2] | IC50 [3] | Ki [3] | IC50 [4] | Ki [4] | IC50 [5] | Ki [5] | IC50 [6] | Ki [6] | IC50 [7] | Ki [7]

O=C/C=C/c1ccccc1
Not Active: IC50 [1] | IC50 [2] | IC50 [3] | IC50 [4] | IC50 [5] | IC50 [6] | IC50 [7]

C=CCc1ccc(O)c(OC)c1 [EUGENOL]
Not Active: IC50 [1] | IC50 [2] | IC50 [3] | IC50 [4] | IC50 [5] | IC50 [6] | IC50 [7]

COC1=C(OC)C(=O)C(CCCCCCCCCCO)=C(C)C1=O [IDEBENONE]
Not Active: IC50 [1] | IC50 [2] | IC50 [3] | IC50 [4] | IC50 [5] | IC50 [6] | IC50 [7]

Oc1cccc(O)c1O [PYROGALLOL]
Not Active: IC50 [1] | IC50 [2] | IC50 [3] | IC50 [4] | IC50 [5] | IC50 [6] | IC50 [7]

C[C@]12C=CC(=O)C=C1CC[C@@H]1[C@@H]2[C@@H](O)C[C@@]2(C)[C@H]1CC[C@]2(O)C(=O)CO [PREDNISOLONE]
Not Active: IC50 [1] | IC50 [2] | IC50 [3] | IC50 [4] | IC50 [5] | IC50 [6] | IC50 [7]

CC(=O)[C@H]1[C@H](C#N)C[C@H]2[C@@H]3CC=C4C[C@@H](O)CC[C@]4(C)[C@H]3CC[C@@]21C [PREGNENOLONE CARBONITRILE]
Not Active: IC50 [1] | IC50 [2] | IC50 [3] | IC50 [4] | IC50 [5] | IC50 [6] | IC50 [7]

CC(C(=O)O)c1cccc(Oc2ccccc2)c1 (centres undefined) [FENOPROFEN]
Not Active: IC50 [1] | IC50 [2] | IC50 [3] | IC50 [4] | IC50 [5] | IC50 [6] | IC50 [7]

NNc1nncc2ccccc12 [HYDRALAZINE]
Not Active: IC50 [1] | IC50 [2] | IC50 [3] | IC50 [4] | IC50 [5] | IC50 [6] | IC50 [7]

O=C1O[C@H]([C@@H](O)CO)C(O)=C1O [ASCORBIC ACID]
Not Active: IC50 [1] | IC50 [2] | IC50 [3] | IC50 [4] | IC50 [5] | IC50 [6] | IC50 [7]

NC(=O)C[S+]([O-])C(c1ccccc1)c1ccccc1 (centres undefined) [MODAFINIL]
Not Active: IC50 [1] | IC50 [2] | IC50 [3] | IC50 [4] | IC50 [5] | IC50 [6] | IC50 [7]

CCN(CC)CCOCCC1=CCC2CC1C2(C)C (centres undefined) [MYRTECAINE]
Not Active: IC50 [1] | IC50 [2] | IC50 [3] | IC50 [4] | IC50 [5] | IC50 [6] | IC50 [7]

COc1ccc2cc3[n+](cc2c1OC)CCc1cc2c(cc1-3)OCO2.[Cl-] [BERBERINE CHLORIDE]
Not Active: IC50 [1] | IC50 [2] | IC50 [3] | IC50 [4] | IC50 [5] | IC50 [6] | IC50 [7]

GRAMICIDIN
Not Active: IC50 [1] | Ki [1] | IC50 [2] | Ki [2] | IC50 [3] | Ki [3] | IC50 [4] | Ki [4] | IC50 [5] | Ki [5] | IC50 [6] | Ki [6] | IC50 [7] | Ki [7]

COc1cc([C@@H]2c3cc4c(cc3[C@@H](O[C@@H]3O[C@@H]5CO[C@@H](C)O[C@H]5[C@H](O)[C@H]3O)[C@H]3COC(=O)[C@H]23)OCO4)cc(OC)c1O [ETOPOSIDE]
Not Active: IC50 [1] | IC50 [2] | IC50 [3] | IC50 [4] | IC50 [5] | IC50 [6] | IC50 [7]
